From patent US5155127A, “N-(substituted aryl)-N'-(substituted alkoxy)-ureas and thioureas as antihypercholesterolemic and antiatherosclerotic agents” (priority 1990, dated 1992) come the findings set out here.

The target of this assay is T1, acyl-CoA:cholesterol acyltransferase (ACAT) (Oryctolagus cuniculus, UniProt G1SFD9).
T1 construct: tissue preparation containing rabbit intestinal microsomes; from tissue; host or cells: rabbit intestinal microsomes
T1 sequence (G1SFD9 1-524): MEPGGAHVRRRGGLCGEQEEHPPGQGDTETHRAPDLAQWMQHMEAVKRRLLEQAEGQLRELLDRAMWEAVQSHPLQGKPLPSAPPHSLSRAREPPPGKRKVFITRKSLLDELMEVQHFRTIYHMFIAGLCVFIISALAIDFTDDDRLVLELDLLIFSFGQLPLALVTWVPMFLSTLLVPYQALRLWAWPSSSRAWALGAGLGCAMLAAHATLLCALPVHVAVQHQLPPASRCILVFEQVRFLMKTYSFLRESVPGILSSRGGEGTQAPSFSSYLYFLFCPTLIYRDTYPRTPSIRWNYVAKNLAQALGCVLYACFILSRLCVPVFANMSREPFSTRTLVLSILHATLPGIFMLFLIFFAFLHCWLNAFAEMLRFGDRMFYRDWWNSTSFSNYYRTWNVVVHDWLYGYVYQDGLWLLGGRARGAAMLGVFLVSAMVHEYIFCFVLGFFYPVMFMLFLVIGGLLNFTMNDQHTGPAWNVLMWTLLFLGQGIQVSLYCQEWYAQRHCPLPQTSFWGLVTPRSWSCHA
In words: in vitro ACAT inhibition: radio-labeled cholesterol oleate formation from radio-labeled oleic acid in rabbit intestinal microsomes. Type of assay: biochemical. Particulars: read-out: IC50 (concentration of test compound required to inhibit cholesteryl oleate formation to 50% of control). The protocol:
The ability of representative compounds of the present invention to inhibit ACAT was measured using an in vitro test more fully described in Field, F. J. and Salome, R. G., Biochimica et Biophysica Acta, volume 712, pages 557-570 (1982). The test assesses the ability of a test compound to inhibit the acylation of cholesterol by oleic acid by measuring the amount of radio-labeled cholesterol oleate formed from radio-labeled oleic acid in a tissue preparation containing rabbit intestinal microsomes. The data in Table I is expressed as IC50 values, i.e., the concentration of test compound required to inhibit cholesteryl oleate formation to 50% of control.
With `CC(C)c1cccc(C(C)C)c1NC(=O)NOC(c1ccccc1)c1ccccc1` [Example 1, N-[2,6-Bis(1-methylethyl)phenyl]-N'-(diphenylmethoxy)-urea], the IC50 amounted to 30 nM. Under `CC(C)c1cccc(C(C)C)c1NC(=O)NOC(c1ccccc1)(c1ccccc1)c1ccccc1` [Example 2, N-[2,6-Bis(1-methylethyl)phenyl]-N'-(triphenylmethoxy)urea] stands 53 nM; under `CC(C)c1cccc(C(C)C)c1NC(=O)NOCc1cccc2ccccc12` [Example 3, N-[2,6-Bis(1-methylethyl)phenyl]-N'-(1-naphthalenylmethoxy)-urea], 92 nM.
